System: skin
Experiment: Affymetrix microarray of skin, DBP-4 hr and analogs vs. untreated; gene selection by log-2 fold change, Wilcoxon, Kendall tau (Tables 8, 9)
Type: in vivo, mouse

CC(C)=O [Acetone]
Log2 Expression Level (gene #1 of Table 8): 5.63 | Log2 Expression Level (gene #2 of Table 8): 7.13 | Log2 Expression Level (gene #3 of Table 8): 8.73 | Log2 Expression Level (gene #4 of Table 8): 8.73 | Log2 Expression Level (gene #5 of Table 8): 6.36 | Log2 Expression Level (gene #6 of Table 8): 5.62 | Log2 Expression Level (gene #7 of Table 8): 5.07 | Log2 Expression Level (gene #8 of Table 8): 5.62 | Log2 Expression Level (gene #9 of Table 8): 5.62 | Log2 Expression Level (gene #10 of Table 8): 5.62 | Log2 Expression Level (gene #11 of Table 8): 5.07 | Log2 Expression Level (gene #12 of Table 8): 5.07 | Log2 Expression Level (gene #13 of Table 8): 5.07 | Log2 Expression Level (gene #14 of Table 8): 4.90 | Log2 Expression Level (gene #15 of Table 8): 4.90 | Log2 Expression Level (gene #16 of Table 8): 6.15 | Log2 Expression Level (gene #17 of Table 8): 8.79 | Log2 Expression Level (gene #18 of Table 8): 8.79 | Log2 Expression Level (gene #19 of Table 8): 8.22 | Log2 Expression Level (gene #20 of Table 8): 7.12 | Log2 Expression Level (gene #21 of Table 8): 7.81 | Log2 Expression Level (gene #22 of Table 8): 7.76 | Log2 Expression Level (gene #23 of Table 8): 5.76 | Log2 Expression Level (gene #24 of Table 8): 6.97 | Log2 Expression Level (gene #25 of Table 8): 6.97 | Log2 Expression Level (gene #26 of Table 8): 6.97 | Log2 Expression Level (gene #27 of Table 8): 6.97 | Log2 Expression Level (gene #28 of Table 8): 6.97 | Log2 Expression Level (gene #29 of Table 8): 4.96 | Log2 Expression Level (gene #30 of Table 8): 8.52 | Log2 Expression Level (gene #31 of Table 8): 8.52 | Log2 Expression Level (gene #32 of Table 8): 8.52 | Log2 Expression Level (gene #33 of Table 8): 5.65 | Log2 Expression Level (gene #34 of Table 8): 6.46 | Log2 Expression Level (gene #35 of Table 8): 6.46 | Log2 Expression Level (gene #36 of Table 8): 8.73 | Log2 Expression Level (gene #37 of Table 8): 8.73 | Log2 Expression Level (gene #38 of Table 8): 8.73 | Log2 Expression Level (gene #39 of Table 8): 7.16 | Log2 Expression Level (gene #40 of Table 8): 7.23 | Log2 Expression Level (gene #41 of Table 8): 7.42 | Log2 Expression Level (gene #42 of Table 8): 7.03 | Log2 Expression Level (gene #43 of Table 8): 7.03 | Log2 Expression Level (gene #44 of Table 8): 7.42 | Log2 Expression Level (gene #45 of Table 8): 7.03 | Log2 Expression Level (gene #46 of Table 8): 7.42 | Log2 Expression Level (gene #47 of Table 8): 7.47 | Log2 Expression Level (gene #48 of Table 8): 7.47 | Log2 Expression Level (gene #49 of Table 8): 7.47 | Log2 Expression Level (gene #50 of Table 8): 7.97 | Log2 Expression Level (gene #51 of Table 8): 7.28 | Log2 Expression Level (gene #52 of Table 8): 9.55 | Log2 Expression Level (gene #53 of Table 8): 7.74 | Log2 Expression Level (gene #54 of Table 8): 9.23 | Log2 Expression Level (gene #55 of Table 8): 6.67 | Log2 Expression Level (gene #56 of Table 8): 8.58 | Log2 Expression Level (gene #57 of Table 8): 8.52 | Log2 Expression Level (gene #58 of Table 8): 8.50 | Log2 Expression Level (gene #59 of Table 8): 8.28 | Log2 Expression Level (gene #60 of Table 8): 6.59 | Log2 Expression Level (gene #61 of Table 8): 11.19 | Log2 Expression Level (gene #62 of Table 8): 7.64 | Log2 Expression Level (gene #63 of Table 8): 10.28 | Log2 Expression Level (gene #64 of Table 8): 10.06 | Log2 Expression Level (gene #65 of Table 8): 6.46 | Log2 Expression Level (gene #66 of Table 8): 7.87 | Log2 Expression Level (gene #67 of Table 8): 4.12 | Log2 Expression Level (gene #68 of Table 8): 6.73 | Log2 Expression Level (gene #69 of Table 8): 4.99 | Log2 Expression Level (gene #70 of Table 8): 4.18 | Log2 Expression Level (gene #71 of Table 8): 6.68 | Log2 Expression Level (gene #72 of Table 8): 7.93 | Log2 Expression Level (gene #73 of Table 8): 5.55 | Log2 Expression Level (gene #74 of Table 8): 7.00 | Log2 Expression Level (gene #75 of Table 8): 8.22 | Log2 Expression Level (gene #76 of Table 8): 4.30 | Log2 Expression Level (gene #77 of Table 8): 8.48 | Log2 Expression Level (gene #78 of Table 8): 9.31 | Log2 Expression Level (gene #79 of Table 8): 6.49 | Log2 Expression Level (gene #80 of Table 8): 12.42 | Log2 Expression Level (gene #81 of Table 8): 5.50 | Log2 Expression Level (gene #82 of Table 8): 5.03 | Log2 Expression Level (gene #83 of Table 8): 6.32 | Log2 Expression Level (gene #84 of Table 8): 6.04 | Log2 Expression Level (gene #85 of Table 8): 4.71 | Log2 Expression Level (gene #86 of Table 8): 6.08 | Log2 Expression Level (gene #87 of Table 8): 8.85 | Log2 Expression Level (gene #88 of Table 8): 4.54 | Log2 Expression Level (gene #89 of Table 8): 5.23 | Log2 Expression Level (gene #90 of Table 8): 9.45 | Log2 Expression Level (gene #91 of Table 8): 6.14 | Log2 Expression Level (gene #92 of Table 8): 6.80 | Log2 Expression Level (gene #93 of Table 8): 8.25 | Log2 Expression Level (gene #94 of Table 8): 7.10 | Log2 Expression Level (gene #95 of Table 8): 4.96 | Log2 Expression Level (gene #96 of Table 8): 6.62 | Log2 Expression Level (gene #97 of Table 8): 5.16 | Log2 Expression Level (gene #98 of Table 8): 4.29 | Log2 Expression Level (gene #99 of Table 8): 8.55 | Log2 Expression Level (gene #100 of Table 8): 6.49

Reference: patent US20150307938A1, “METHOD TO IDENTIFY A NOVEL CLASS OF IMMUNOLOGIC ADJUVANTS” (Lancell, L.L.C., priority 2011, published 2015)
